Drawing on ChEMBL document CHEMBL3734715, “Synthesis and antiproliferativeactivity of new vinca alkaloids containing an α,β-unsaturated aromatic side chain” (Bioorg Med Chem Lett, 2015), this text covers IC50 for 17 compounds.

Structures can show the parent of a compound that is named as a salt.

Type in all cases: functional, cell-based
One experiment concerns KB. Kind of experiment: Cytotoxicity against human KB cells after 72 hrs by SRB assay. For orientation: The SRB assay estimates cell density from bound dye.
A further experiment relates to MCF7. Kind of experiment: Cytotoxicity against human MCF7 cells after 72 hrs by SRB assay. The settings on record: MCF7, 72 h.
Another experiment deals with HepG2. Kind of experiment: Cytotoxicity against human HepG2 cells after 72 hrs by SRB assay. The settings on record: HepG2, 72 h.
Another experiment concerns Lu1. Kind of experiment: Cytotoxicity against human Lu1 cells after 72 hrs by SRB assay. The settings on record: Lu1, 72 h.

For the compound `CC[C@]1(O)C[C@@H]2C[C@](C(=O)OC)(c3cc4c(cc3OC)N(C)[C@H]3[C@@](O)(C(=O)OC)[C@H](OC(C)=O)[C@]5(CC)C=CCN6CC[C@]43[C@@H]65)c3[nH]c4ccccc4c3CC[N@+](CC(=O)/C=C/c3ccc4ccccc4c3)(C2)C1`, the IC50 is 0.03 µM in the experiment with KB, 13.7 µM with MCF7, 18.1 µM in the experiment with HepG2 and 15.1 µM with Lu1.

`CC[C@]1(O)C[C@@H]2C[C@](C(=O)OC)(c3cc4c(cc3OC)N(C=O)[C@H]3[C@@](O)(C(=O)OC)[C@H](OC(C)=O)[C@]5(CC)C=CCN6CC[C@]43[C@@H]65)c3[nH]c4ccccc4c3CC[N@+](CC(=O)/C=C/c3ccc(O)c(OC)c3)(C2)C1`: the IC50 was found to be 1.67 µM with KB, 3.08 µM in the experiment on MCF7, 2.44 µM in the experiment on HepG2 and 3.45 µM in the experiment with Lu1.

As to `CC[C@]1(O)C[C@@H]2C[C@](C(=O)OC)(c3cc4c(cc3OC)N(C)[C@H]3[C@@](O)(C(=O)OC)[C@H](OC(C)=O)[C@]5(CC)C=CCN6CC[C@]43[C@@H]65)c3[nH]c4ccccc4c3CC[N@+](CC(=O)/C=C/c3ccc(Cl)cc3)(C2)C1`, the IC50 worked out at 0.06 µM in the experiment on KB, 4.89 µM in the experiment with MCF7, 7.77 µM in the experiment on HepG2 and 4.25 µM in the experiment on Lu1.

Take `CC[C@]1(O)C[C@@H]2C[C@](C(=O)OC)(c3cc4c(cc3OC)N(C=O)[C@H]3[C@@](O)(C(=O)OC)[C@H](OC(C)=O)[C@]5(CC)C=CCN6CC[C@]43[C@@H]65)c3[nH]c4ccccc4c3CC[N@+](CC(=O)/C=C/c3ccc4ccccc4c3)(C2)C1`: the half-maximal inhibitory concentration (IC50) was 0.08 µM in the experiment on KB, 11 µM in the experiment with MCF7, 7.94 µM with HepG2 and 12 µM in the experiment with Lu1.

`CCC1=C[C@@H]2C[C@](C(=O)OC)(c3cc4c(cc3OC)N(C)[C@H]3[C@@](O)(C(=O)OC)[C@H](OC(C)=O)[C@]5(CC)C=CCN6CC[C@]43[C@@H]65)c3[nH]c4ccccc4c3CC[N@@+](CC(=O)/C=C/c3ccc(Cl)cc3)(C1)C2`: the IC50 was determined as 0.28 µM in the experiment with KB, 1.83 µM with MCF7, 1.75 µM in the experiment with HepG2 and 1.31 µM in the experiment with Lu1.

Turning to `CCC1=C[C@H]2CN(CCc3c([nH]c4ccccc34)[C@@](C(=O)OC)(c3c(OC)cc(N)cc3OC)C2)C1`, the half-maximal inhibitory concentration (IC50) in the experiment with KB stood at 11.5 µM; with MCF7, 21 µM; with HepG2 it was 20.4 µM; in the experiment on Lu1, 19.4 µM.

For `CC[C@]1(O)C[C@@H]2C[C@](C(=O)OC)(c3cc4c(cc3OC)N(C=O)[C@H]3[C@@](O)(C(=O)OC)[C@H](OC(C)=O)[C@]5(CC)C=CCN6CC[C@]43[C@@H]65)c3[nH]c4ccccc4c3CC[N@+](CC(=O)/C=C/c3ccc(Cl)cc3)(C2)C1`, the IC50 in the experiment with KB was 0.03 µM; in the experiment on MCF7 it was 10.9 µM; in the experiment with HepG2 it was 14.2 µM; in the experiment with Lu1, 13.8 µM.

For `CCC1=C[C@@H]2C[C@](C(=O)OC)(c3c(OC)cc(N)cc3OC)c3[nH]c4ccccc4c3CC[N@@+](CC(=O)/C=C/c3ccc4ccccc4c3)(C1)C2`, the IC50 is 4.16 µM with KB, 11.9 µM in the experiment on MCF7, 10.9 µM with HepG2 and 8.34 µM with Lu1.

Take `CCC1=C[C@@H]2C[C@](C(=O)OC)(c3c(OC)cc(N)cc3OC)c3[nH]c4ccccc4c3CC[N@@+](CC(=O)/C=C/c3ccc(O)c(OC)c3)(C1)C2`: the half-maximal inhibitory concentration (IC50) in the experiment with KB is 9.11 µM; in the experiment with MCF7, 94.5 µM; in the experiment with HepG2, 86.8 µM; in the experiment on Lu1, 79 µM.

Regarding `CCC1=C[C@@H]2C[C@](C(=O)OC)(c3c(OC)cc(N)cc3OC)c3[nH]c4ccccc4c3CC[N@@+](CC(=O)/C=C/c3ccc(Cl)cc3)(C1)C2`, the IC50 with KB came to 6.12 µM; with MCF7 it was 17.9 µM; in the experiment with HepG2, 20.2 µM; in the experiment on Lu1, 13.8 µM.

`CCC1=C[C@@H]2C[C@](C(=O)OC)(c3cc4c(cc3OC)N(C)[C@H]3[C@@](O)(C(=O)OC)[C@H](OC(C)=O)[C@]5(CC)C=CCN6CC[C@]43[C@@H]65)c3[nH]c4ccccc4c3CC[N@@+](CC(=O)/C=C/c3ccc(O)c(OC)c3)(C1)C2`: the half-maximal inhibitory concentration (IC50) in the experiment on KB amounted to 0.64 µM; with MCF7, 50.5 µM; with HepG2 it was 51.5 µM; in the experiment on Lu1 it was 57.5 µM.

With `CCC1=C[C@@H]2C[C@](C(=O)OC)(c3cc4c(cc3OC)N(C)[C@H]3[C@@](O)(C(=O)OC)[C@H](OC(C)=O)[C@]5(CC)C=CCN6CC[C@]43[C@@H]65)c3[nH]c4ccccc4c3CC[N@@+](CC(=O)/C=C/c3ccc4ccccc4c3)(C1)C2`, the IC50 in the experiment with KB was found to be 0.64 µM; in the experiment with MCF7 it was 4.82 µM; in the experiment with HepG2 it was 4.31 µM; with Lu1, 3.71 µM.

As for `CC[C@]1(O)C[C@@H]2C[C@](C(=O)OC)(c3cc4c(cc3OC)N(C)[C@H]3[C@@](O)(C(=O)OC)[C@H](OC(C)=O)[C@]5(CC)C=CCN6CC[C@]43[C@@H]65)c3[nH]c4ccccc4c3CC[N@+](CC(=O)/C=C/c3ccc(O)c(OC)c3)(C2)C1`, the IC50 in the experiment with KB was 1.69 µM; in the experiment on MCF7, 12.5 µM; in the experiment on HepG2, 7.23 µM; with Lu1, 4.8 µM.

In the case of `CC[C@]1(O)C[C@H]2CN(CCc3c([nH]c4ccccc34)[C@@](C(=O)OC)(c3cc4c(cc3OC)N(C)[C@H]3[C@@](O)(C(=O)OC)[C@H](OC(C)=O)[C@]5(CC)C=CCN6CC[C@]43[C@@H]65)C2)C1`, the half-maximal inhibitory concentration (IC50) in the experiment with KB stood at 0.02 µM; in the experiment on MCF7, 0.23 µM; in the experiment on HepG2, 0.34 µM; in the experiment with Lu1, 0.47 µM.

For `CCC1=C[C@H]2CN(CCc3c([nH]c4ccccc34)[C@@](C(=O)OC)(c3cc4c(cc3OC)N(C)[C@H]3[C@@](O)(C(=O)OC)[C@H](OC(C)=O)[C@]5(CC)C=CCN6CC[C@]43[C@@H]65)C2)C1`, the IC50 was determined as 2.06 µM in the experiment on KB, 4.63 µM in the experiment on MCF7, 4.53 µM in the experiment with HepG2 and 5.98 µM with Lu1.

For the compound `Cc1c2ccncc2c(C)c2c1[nH]c1ccccc12` [ELLIPTECINE], the IC50 was 1.66 µM in the experiment with KB, 1.54 µM in the experiment on MCF7, 2.07 µM in the experiment with HepG2 and 2.31 µM in the experiment with Lu1.

On to `CC[C@]1(O)C[C@H]2CN(CCc3c([nH]c4ccccc34)[C@@](C(=O)OC)(c3cc4c(cc3OC)N(C=O)[C@H]3[C@@](O)(C(=O)OC)[C@H](OC(C)=O)[C@]5(CC)C=CCN6CC[C@]43[C@@H]65)C2)C1` [VINCRISTINE SULFATE], for which the IC50 with KB amounted to 0.02 µM; in the experiment with MCF7, 0.51 µM; with HepG2, 0.69 µM; in the experiment on Lu1, 0.48 µM.

What is called IC50 is the concentration that inhibits the measured activity by half. High values mean a need for much substance, low ones inhibition by little substance.
